Data taken from patent publication US7214690B2, “Tricyclic quinolinone and tricyclic quinoline androgen receptor modulator compounds and methods” (Ligand Pharmaceuticals Incorporated, priority 2001, dated 2007).

Tests used:
[1] = biological target: T1, PR (Homo sapiens, UniProt P06401); experiment: co-transfection assay, PR; type: cell-based
T1 construct: expressed in transfected cells; host or cells: background cell substantially devoid of endogenous IRs (CV-1 described for the co-transfection assay)
T1 sequence (P06401 1-933): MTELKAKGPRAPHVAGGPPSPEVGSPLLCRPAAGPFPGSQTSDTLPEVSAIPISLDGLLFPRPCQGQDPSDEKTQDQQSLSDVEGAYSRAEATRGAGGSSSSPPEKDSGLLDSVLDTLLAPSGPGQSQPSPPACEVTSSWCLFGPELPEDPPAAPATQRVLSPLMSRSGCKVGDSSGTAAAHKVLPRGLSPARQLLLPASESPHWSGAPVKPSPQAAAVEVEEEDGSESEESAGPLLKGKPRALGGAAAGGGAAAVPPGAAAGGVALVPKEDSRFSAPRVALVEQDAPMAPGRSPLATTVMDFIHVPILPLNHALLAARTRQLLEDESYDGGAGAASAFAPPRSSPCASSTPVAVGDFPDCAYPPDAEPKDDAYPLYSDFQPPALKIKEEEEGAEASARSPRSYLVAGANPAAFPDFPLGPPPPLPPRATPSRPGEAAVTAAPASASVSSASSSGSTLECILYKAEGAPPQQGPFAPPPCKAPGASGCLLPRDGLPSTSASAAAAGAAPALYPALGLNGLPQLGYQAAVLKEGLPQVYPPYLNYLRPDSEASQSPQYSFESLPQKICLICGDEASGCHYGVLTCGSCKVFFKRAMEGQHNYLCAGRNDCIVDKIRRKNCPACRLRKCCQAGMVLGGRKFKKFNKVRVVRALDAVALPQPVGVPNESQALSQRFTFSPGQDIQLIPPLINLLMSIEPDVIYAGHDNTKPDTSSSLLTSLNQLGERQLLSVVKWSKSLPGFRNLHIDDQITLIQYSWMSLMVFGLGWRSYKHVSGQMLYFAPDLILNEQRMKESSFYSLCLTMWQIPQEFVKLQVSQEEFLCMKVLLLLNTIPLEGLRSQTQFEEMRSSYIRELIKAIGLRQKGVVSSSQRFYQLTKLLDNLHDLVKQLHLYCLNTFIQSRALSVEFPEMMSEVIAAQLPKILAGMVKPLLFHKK
Protocol: (§1) CV-1 cells (African green monkey kidney fibroblasts) were cultured in the presence of Dulbecco's Modified Eagle Medium (DMEM) supplemented with 10% charcoal resin-stripped fetal bovine serum (CH-FBS) then transferred to 96-well microtiter plates one day prior to transfection.
(§2) Three to four replicates were used for each sample.
(§3) After 40 hours, the cells were washed with PBS, lysed with a Triton X-100-based buffer and assayed for LUC and β-Gal activities using a luminometer or spectrophotometer, respectively. For each replicate, the normalized response (NR) was calculated as: LUC response/β-Gal rate • where β-Gal rate=β-Gal/β-Gal incubation time.

[2] = biological target: T2, ER (Homo sapiens, UniProt P03372); experiment: co-transfection assay, ER; type: cell-based
T2 construct: expressed in transfected cells; host or cells: background cell substantially devoid of endogenous IRs (CV-1 described for the co-transfection assay)
T2 sequence (P03372 1-595): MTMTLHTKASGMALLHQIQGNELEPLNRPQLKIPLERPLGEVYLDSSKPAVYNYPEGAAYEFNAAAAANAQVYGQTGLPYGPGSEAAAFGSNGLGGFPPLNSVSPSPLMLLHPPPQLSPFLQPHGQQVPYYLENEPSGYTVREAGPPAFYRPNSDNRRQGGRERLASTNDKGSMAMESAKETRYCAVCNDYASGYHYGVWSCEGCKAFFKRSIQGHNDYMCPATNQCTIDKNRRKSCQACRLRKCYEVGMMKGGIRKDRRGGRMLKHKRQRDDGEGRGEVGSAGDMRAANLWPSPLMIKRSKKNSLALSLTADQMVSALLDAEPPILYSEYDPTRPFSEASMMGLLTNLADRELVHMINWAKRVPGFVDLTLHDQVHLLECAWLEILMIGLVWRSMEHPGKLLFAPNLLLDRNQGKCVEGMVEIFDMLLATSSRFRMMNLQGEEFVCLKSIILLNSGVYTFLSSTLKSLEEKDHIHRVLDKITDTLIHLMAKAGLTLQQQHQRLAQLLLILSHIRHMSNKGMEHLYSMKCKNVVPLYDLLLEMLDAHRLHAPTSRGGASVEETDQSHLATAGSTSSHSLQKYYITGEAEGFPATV
Protocol: as §1, §2, §3

C=CCN1c2ccc3[nH]c(=O)cc(C(F)(F)F)c3c2OC[C@H]1CC [Compound 114, (3R)-4-Allyl-3-ethyl-2,3,4,7-tetrahydro-10-(trifluoromethyl)-8H-[1,4]oxazino[2,3-f]quinolin-8-one]
> 10 µM: EC50 [1] | EC50 [2] | IC50 [2]

CC(C)[C@@H]1COc2c(ccc3[nH]c(=O)cc(C(F)(F)F)c23)N1CC(F)(F)Cl [Compound 124, (3R)-4-(2-Chloro-2,2-difluoroethyl)-2,3,4,7-tetrahydro-3-isopropyl-10-(trifluoromethyl)-8H-[1,4]oxazino[2,3-f]quinolin-8-one]
> 10 µM: EC50 [1] | EC50 [2] | IC50 [2]

CC[C@@H]1COc2c(ccc3[nH]c(=O)cc(C(F)(F)F)c23)N1CC(F)(F)F [Compound 110, (3R)-3-Ethyl-2,3,4,7-tetrahydro-4-(2,2,2-trifluoroethyl)-10-(trifluoromethyl)-8H-[1,4]oxazino[2,3-f]quinolin-8-one]
> 10 µM: EC50 [1] | EC50 [2] | IC50 [2]
